Test results reported in article PMC10141580, “Cyclic Dichalcogenides Extend the Reach of Bioreductive Prodrugs to Harness Thiol/Disulfide Oxidoreductases: Applications to seco-Duocarmycins Targeting the Thioredoxin System” (ACS Central Science, 2023).
Read-outs that look alike come from different tables or passages of the source.

Test system: NCI-60 standardized human tumor cell line panel
Experiment: cells
Format: cell-based
Conditions: for NCI-60 screening: Log(RedIndex): log10 reductive index vs P-CC60; for GI50: Homo sapiens

COc1cc2cc(C(=O)N3C[C@@H](CCl)c4c3cc(OC(=O)N3CCN(C(=O)CCC(=O)N5CCN(C)CC5)[C@H]5CSSC[C@H]53)c3ccccc43)[nH]c2c(OC)c1OC [P-SS66C-CBI-TMI]
reductive activation index ratio NCI-60/ProliFiler, mean (19 overlapping cell lines): 1.8 fold
NCI-60 screening: Log(RedIndex) (786-0 (RE) cell line): 1.22
NCI-60 screening: Log(RedIndex) (A498 (RE) cell line): 1.1
NCI-60 screening: Log(RedIndex) (ACHN (RE) cell line): 1.07
NCI-60 screening: Log(RedIndex) (CAKI-1 (RE) cell line): 0.94
NCI-60 screening: Log(RedIndex) (DU-145 (PR) cell line): 1.27
GI50 (786-0, 786-0 (RE) cell line, log10 of GI50 in M, read-out: NCI-60 screening: Log(GI50) (converted)): 105 nM
GI50 (786-0, 786-0 (RE) cell line, read-out: NCI-60 screening: Raw GI50): 110 nM
GI50 (786-0, 786-0, read-out: GI50): 110 nM
GI50 (A498, A498 (RE) cell line, log10 of GI50 in M, read-out: NCI-60 screening: Log(GI50) (converted)): 219 nM
GI50 (A498, A498, read-out: GI50): 220 nM
GI50 (A549, A549/ATCC, read-out: GI50): 90 nM
GI50 (A549, cell line A549/ATCC (LC:A549/ATCC), TMI sheet, read-out: NCI-60 screening: Log(GI50) (converted)): 89.1 nM
GI50 (ACHN, ACHN (RE) cell line, log10 of GI50 in M, read-out: NCI-60 screening: Log(GI50) (converted)): 42.7 nM
GI50 (ACHN, read-out: GI50): 42 nM
GI50 (BT-549, BT-549, read-out: GI50): 140 nM
GI50 (BT-549, cell line BT-549 (BR:BT-549), TMI sheet, read-out: NCI-60 screening: Log(GI50) (converted)): 145 nM
GI50 (BT-549, cell line BT-549 (BR:BT-549), TMI sheet, read-out: NCI-60 screening: Raw GI50): 140 nM
GI50 (CAKI-1, CAKI-1 (RE) cell line, log10 of GI50 in M, read-out: NCI-60 screening: Log(GI50) (converted)): 174 nM
GI50 (CAKI-1, Caki-1, read-out: GI50): 170 nM
GI50 (CCRF-CEM, cell line CCRF-CEM (LE:CCRF-CEM), TMI sheet, read-out: NCI-60 screening: Log(GI50) (converted)): 269 nM
GI50 (CCRF-CEM, cell line CCRF-CEM (LE:CCRF-CEM), TMI sheet, read-out: NCI-60 screening: Raw GI50): 270 nM
GI50 (CCRF-CEM, read-out: GI50): 270 nM
GI50 (COLO 205, Colo 205, read-out: GI50): 140 nM
GI50 (COLO 205, cell line COLO 205 (CO:COLO 205), TMI sheet, read-out: NCI-60 screening: Log(GI50) (converted)): 145 nM
GI50 (COLO 205, cell line COLO 205 (CO:COLO 205), TMI sheet, read-out: NCI-60 screening: Raw GI50): 140 nM
GI50 (DU-145, DU-145 (PR) cell line, log10 of GI50 in M, read-out: NCI-60 screening: Log(GI50) (converted)): 24.5 nM
GI50 (DU-145, DU-145, read-out: GI50): 25 nM
GI50 (EKVX, cell line EKVX (LC:EKVX), TMI sheet, read-out: NCI-60 screening: Log(GI50) (converted)): 209 nM
GI50 (EKVX, read-out: GI50): 210 nM
GI50 (HCC 2998, HCC-2998, read-out: GI50): 54 nM
GI50 (HCC 2998, cell line HCC-2998 (CO:HCC-2998), TMI sheet, read-out: NCI-60 screening: Log(GI50) (converted)): 53.7 nM
GI50 (HCT-15, HCT-15, read-out: GI50): 240 nM
GI50 (HCT-15, cell line HCT-15 (CO:HCT-15), TMI sheet, read-out: NCI-60 screening: Log(GI50) (converted)): 245 nM
GI50 (HCT-15, cell line HCT-15 (CO:HCT-15), TMI sheet, read-out: NCI-60 screening: Raw GI50): 240 nM
GI50 (HCT-116, HCT-116, read-out: GI50): 150 nM
GI50 (HCT-116, cell line HCT-116 (CO:HCT-116), TMI sheet, read-out: NCI-60 screening: Log(GI50) (converted)): 155 nM
GI50 (HCT-116, cell line HCT-116 (CO:HCT-116), TMI sheet, read-out: NCI-60 screening: Raw GI50): 150 nM
GI50 (HL-60, HL-60(TB), read-out: GI50): 48 nM
GI50 (HL-60, cell line HL-60(TB) (LE:HL-60(TB)), TMI sheet, read-out: NCI-60 screening: Log(GI50) (converted)): 47.9 nM
GI50 (HOP-62, HOP-62, read-out: GI50): 41 nM
GI50 (HOP-62, cell line HOP-62 (LC:HOP-62), TMI sheet, read-out: NCI-60 screening: Log(GI50) (converted)): 41.7 nM
GI50 (HOP-92, HOP-92, read-out: GI50): 180 nM
GI50 (HOP-92, cell line HOP-92 (LC:HOP-92), TMI sheet, read-out: NCI-60 screening: Log(GI50) (converted)): 178 nM
GI50 (HT-29, HT29, read-out: GI50): 140 nM
GI50 (HT-29, cell line HT29 (CO:HT29), TMI sheet, read-out: NCI-60 screening: Log(GI50) (converted)): 141 nM
GI50 (HT-29, cell line HT29 (CO:HT29), TMI sheet, read-out: NCI-60 screening: Raw GI50): 140 nM
GI50 (Hs-578T, read-out: GI50): 290 nM
GI50 (Hs-578T, read-out: NCI-60 screening: Log(GI50) (converted)): 295 nM
GI50 (IGROV-1, IGROV1 (OV) cell line, log10 of GI50 in M, read-out: NCI-60 screening: Log(GI50) (converted)): 200 nM
GI50 (IGROV-1, IGROV1, read-out: GI50): 200 nM
GI50 (K562, K-562, read-out: GI50): 89 nM
GI50 (K562, cell line K-562 (LE:K-562), TMI sheet, read-out: NCI-60 screening: Log(GI50) (converted)): 89.1 nM
GI50 (KM12, KM12, read-out: GI50): 130 nM
GI50 (KM12, cell line KM12 (CO:KM12), TMI sheet, read-out: NCI-60 screening: Log(GI50) (converted)): 132 nM
GI50 (KM12, cell line KM12 (CO:KM12), TMI sheet, read-out: NCI-60 screening: Raw GI50): 130 nM
GI50 (LOX IMVI, cell line LOX IMVI (ME:LOX IMVI), TMI sheet, read-out: NCI-60 screening: Log(GI50) (converted)): 69.2 nM
GI50 (LOX IMVI, read-out: GI50): 69 nM
GI50 (M14, M14, read-out: GI50): 120 nM
GI50 (MCF7, MCF7, read-out: GI50): 15 nM
GI50 (MCF7, cell line MCF7 (BR:MCF7), TMI sheet, read-out: NCI-60 screening: Log(GI50) (converted)): 14.8 nM
GI50 (MDA-MB-435, MDA-MB-435, read-out: GI50): 150 nM
GI50 (MDA-MB-435, cell line MDA-MB-435 (ME:MDA-MB-435), TMI sheet, read-out: NCI-60 screening: Log(GI50) (converted)): 148 nM
GI50 (MDA-MB-435, cell line MDA-MB-435 (ME:MDA-MB-435), TMI sheet, read-out: NCI-60 screening: Raw GI50): 150 nM
GI50 (MDA-MB-468, MDA-MB-468, read-out: GI50): 37 nM
GI50 (MOLT-4, MOLT-4, read-out: GI50): 63 nM
GI50 (MOLT-4, cell line MOLT-4 (LE:MOLT-4), TMI sheet, read-out: NCI-60 screening: Log(GI50) (converted)): 63.1 nM
GI50 (Malme-3M, cell line MALME-3M (ME:MALME-3M), TMI sheet, read-out: NCI-60 screening: Log(GI50) (converted)): 135 nM
GI50 (Malme-3M, cell line MALME-3M (ME:MALME-3M), TMI sheet, read-out: NCI-60 screening: Raw GI50): 130 nM
GI50 (Malme-3M, read-out: GI50): 130 nM
GI50 (NCI-H23, NCI-H23, read-out: GI50): 19 nM
GI50 (NCI-H23, cell line NCI-H23 (LC:NCI-H23), TMI sheet, read-out: NCI-60 screening: Log(GI50) (converted)): 18.6 nM
GI50 (NCI-H23, cell line NCI-H23 (LC:NCI-H23), TMI sheet, read-out: NCI-60 screening: Raw GI50): 19 nM
GI50 (NCI-H226, NCI-H226, read-out: GI50): 240 nM
GI50 (NCI-H226, cell line NCI-H226 (LC:NCI-H226), TMI sheet, read-out: NCI-60 screening: Log(GI50) (converted)): 245 nM
GI50 (NCI-H226, cell line NCI-H226 (LC:NCI-H226), TMI sheet, read-out: NCI-60 screening: Raw GI50): 240 nM
GI50 (NCI-H322M, read-out: GI50): 50 nM
GI50 (NCI-H322M, read-out: NCI-60 screening: Log(GI50) (converted)): 50.1 nM
GI50 (NCI-H460, NCI-H460 (LC) cell line, log10 of GI50 in M, read-out: NCI-60 screening: Log(GI50) (converted)): 22.4 nM
GI50 (NCI-H460, NCI-H460, read-out: GI50): 22 nM
GI50 (NCI-H522, NCI-H522 (LC) cell line, log10 of GI50 in M, read-out: NCI-60 screening: Log(GI50) (converted)): 55 nM
GI50 (NCI-H522, NCI-H522, read-out: GI50): 56 nM
GI50 (OVCAR-3, OVCAR-3 (OV) cell line, log10 of GI50 in M, read-out: NCI-60 screening: Log(GI50) (converted)): 145 nM
GI50 (OVCAR-3, OVCAR-3 (OV) cell line, read-out: NCI-60 screening: Raw GI50): 140 nM
GI50 (OVCAR-3, OVCAR-3, read-out: GI50): 140 nM
GI50 (OVCAR-4, OVCAR-4 (OV) cell line, log10 of GI50 in M, read-out: NCI-60 screening: Log(GI50) (converted)): 195 nM
GI50 (OVCAR-4, OVCAR-4, read-out: GI50): 190 nM
GI50 (OVCAR-5, OVCAR-5 (OV) cell line, log10 of GI50 in M, read-out: NCI-60 screening: Log(GI50) (converted)): 257 nM
GI50 (OVCAR-5, OVCAR-5, read-out: GI50): 250 nM
GI50 (OVCAR-8, OVCAR-8 (OV) cell line, log10 of GI50 in M, read-out: NCI-60 screening: Log(GI50) (converted)): 91.2 nM
GI50 (OVCAR-8, OVCAR-8, read-out: GI50): 92 nM
GI50 (PC-3 (PR) cell line, log10 of GI50 in M, read-out: NCI-60 screening: Log(GI50) (converted)): 479 nM
